Test [1] has as its target KRAS-WT (Homo sapiens, UniProt P01116). The experiment in a line: SOS-catalyzed nucleotide exchange assay (Procedure A, TR-FRET), KRAS-WT. In kind it is biochemical. To be noted: nucleotide exchange, read-out: KRAS WT GNE IC50. Put shortly:
(§1)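 Signal ratio (520/495 nm, excitation 340 nm) reports Bodipy-GDP retention on biotinylated RAS after SOS-catalyzed exchange with 3 mM GTP. SOS was 40 nM, except 160 nM for G12V. Room-temperature exchange lasted 60 min (90 min for G12V), following a 60 min compound preincubation.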
For orientation: Time-resolved FRET reads energy transfer from a long-lived donor to a nearby acceptor.

For test [2], the target named is KRAS-G12C (C51S/C80L/C118S) (Homo sapiens, UniProt P01116, C118S/C51S/C80L/G12C). The experiment in a line: SOS-catalyzed nucleotide exchange assay (Procedure A, TR-FRET), KRAS-G12C. In kind it is biochemical. To be noted: nucleotide exchange, Procedure A; read-out: KRAS G12C GNE IC50. Put shortly: as §1
Test [3] deals with KRAS-G12D (Homo sapiens, UniProt P01116, G12D). Nature of the test: SOS-catalyzed nucleotide exchange assay (Procedure A, TR-FRET), KRAS-G12D. To be noted: nucleotide exchange, read-out: KRAS G12D GNE IC50. It is filed as biochemical. In a few lines: as §1
The target of test [4] is KRAS-G12V (Homo sapiens, UniProt P01116, G12V). The experiment in a line: SOS-catalyzed nucleotide exchange assay (Procedure A, TR-FRET), KRAS-G12V. It is filed as biochemical. To be noted: nucleotide exchange, read-out: KRAS G12V GNE IC50. Put shortly:
as §1

Test [5] concerns the target KRAS-G13D (Homo sapiens, UniProt P01116, G13D). Nature of the test: SOS-catalyzed nucleotide exchange assay (Procedure A, TR-FRET), KRAS-G13D. In kind it is biochemical. To be noted: nucleotide exchange, Procedure A; read-out: KRAS G13D GNE IC50.
The subject of test [6] is MKN-1 cells. Nature of the test: Cellular phospho-ERK assay, MKN-1 cells (amplified wild-type KRAS). In kind it is cell-based. To be noted: read-out: MKN1 pERK IC50. Put shortly: (§2)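 ERK phosphorylation relative to total ERK is the endpoint, detected by AlphaScreen-based SureFire multiplex following a 2-hour treatment at 37 °C. Compounds are titrated 1:3 over ten points from 30 μM.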

Test [7] has as its system AsPC-1 cells. The experiment in a line: Cellular phospho-ERK assay, AsPC-1 cells (homozygous KRAS-G12D). In kind it is cell-based. To be noted: read-out: AsPC1 pERK IC50. In a few lines: as §2
The subject of test [8] is SW620 cells. The experiment in a line: Cellular phospho-ERK assay, SW620 cells (homozygous KRAS-G12V). It is filed as cell-based. To be noted: read-out: SW620 pERK IC50. Put shortly:
as §2

[9] abbreviates: Homo sapiens, amplified wild-type KRAS, 2 hours.
Setting [10] is: Homo sapiens, ASPC1, 2 h, KRAS-G12D, 2 hours.
[11] abbreviates: Homo sapiens, SW-620, KRAS-G12V, 2 hours.
Where [12] appears, read: Homo sapiens, 2 hours compound incubation.
[13] abbreviates: Homo sapiens, ASPC1, 2 h, 2 hours compound incubation.
The mark [14] stands for this setting: Homo sapiens, SW-620, 2 hours compound incubation.

Where two headings read alike, the source gives them in different places.

Usually IC50 stands for the concentration at which inhibition is half-maximal.

Take `CN1CCC[C@H]1COc1nc(N2CCOC[C@@](C)(O)C2)c2c(n1)sc1c(-c3c(C4CC4)c(C(F)(F)F)cc4[nH]ncc34)nccc12` [Ex-79, (6S)-4-(8-(5-cyclopropyl-6-(trifluoromethyl)-1H-indazol-4-yl)-2-(((S)-1-methylpyrrolidin-2-yl)methoxy)pyrido[4′,3′:4.5]thi-eno[2,3-d]pyrimidin-4-yl)-6-methyl-1,4-oxazepan-6-ol]: the concentration for half-maximal inhibition (IC50) stood at 8.2 nM in test [1]; 57.9 nM in test [2]; 5.84 nM in test [3]; 10.8 nM in test [4]; 27.9 nM in test [5]; 16.2 nM in test [6] (setting [9]). Further, the IC50 in test [7] (setting [10]) is 23.2 nM; in test [8] (setting [11]) it was 8.94 nM.
Consider `C[C@@]1(O)COCCN(c2nc(OC[C@@]34CCCN3C[C@@]3(CC3(F)F)C4)nc3sc4c(-c5c(C6CC6)c(Cl)cc6[nH]ncc56)nccc4c23)C1` [Ex-211, (6S)-4-(8-(6-chloro-5-cyclopropyl-1H-indazol-4-yl)-2-(((1S,7a′S)-2,2-difluorodihydro-1′H,3′H-spiro[cyclo-propane-1,2′-pyrrol-izin]-7a′(5′H)-yl)-methoxy)pyrido [4′,3′:4,5]thieno[2,3-d]pyrimidin-4-yl)-6-methyl-1,4-oxaze-pan-6-ol], for which the IC50 in test [1] is 16.5 nM; in test [2], 45.4 nM; in test [3] it was 5.85 nM; in test [4] it was 12.1 nM; in test [5], 15 nM; in test [6] (setting [12]) it was 83 nM. For the same compound, the IC50 in test [7] (setting [13]) is 56.9 nM; in test [8] (setting [14]), 49.4 nM.
As for “(6S)-4-(8-(6-chloro- 5-cyclopropyl-1H- indazol-4-yl)-2- (((6'R,7a′R)-6′- fluorodihydro- 1′H,3′H-spiro[cyclo- propane-1,2′-pyr- rolizin]-7a′(5′H)- yl)methoxy)pyrido [4′,3′:4,5]thieno[2,3- d]pyrimidin-4-yl)-6- methyl-1,4-oxaze- pan-6-ol [Ex-218]”, the IC50 is 6.76 nM in test [1]; 77.4 nM in test [2]; 3.42 nM in test [3]; 8.69 nM in test [4]; 7.46 nM in test [5]; 37.4 nM in test [6] (2 hours compound incubation). Moreover, the IC50 in test [7] (2 hours compound incubation) came out at 31.9 nM; in test [8] (2 hours compound incubation), 20.2 nM.
For `Cc1cc2[nH]ncc2c(-c2nccc3c2sc2nc(OC[C@@]45CCCN4C[C@H](F)C5)nc(N4CCOC[C@@](C)(O)C4)c23)c1C12CC(C1)C2` [Ex-43, (6S)-4-(8-(5-(bicyclo[1.1.1]pentan-1 yl)-6-methy1-1H-indazol-4-yl)-2-(((2R,7aS)-2-fluorotetrahydro-1H-pyrrolizin-7a(5H)-yl)methoxy)pyrido[4′,3′:4,5]thi-eno[2,3-d]pyrimidin-4-yl)-6-methyl-1,4-oxazepan-6-ol], the IC50 came out at 44.4 nM in test [1]; 24.3 nM in test [2]; 13.9 nM in test [3]; 26.8 nM in test [4]; 17.5 nM in test [5]; 145 nM in test [6] (setting [9]). Moreover, the results for the IC50 in test [7] (setting [10]) and in test [8] (setting [11]) were 130 nM and 62 nM, respectively.
Take `C[C@@]1(O)COCCN(c2nc(OC[C@@]34CCCN3C[C@H](F)C4)nc3sc4c(-c5c(C6(F)CC6)c(Cl)cc6[nH]ncc56)nccc4c23)C1` [Ex-52, (6S)-4-(8-(6-chloro-5-(1-fluorocyclopropyl)-1H-indazol-4-yl)-2-(((2R,7aS)-2-fluorotetrahydro-1H-pyrrolizin-7a(5H)-yl)methoxy)pyrido[4′,3′-4,5]thi-eno[2,3-d]pyrimidin-4-yl)-6-methyl-1,4-oxazepan-6-ol]: the IC50 in test [1] is 11.9 nM; in test [2], 30.1 nM; in test [3] it was 4.05 nM; in test [4] it was 12.9 nM; in test [5] it was 9.02 nM; in test [6] (setting [9]) it was 48.6 nM. The IC50 in test [7] (setting [10]) stood at 68.7 nM; in test [8] (setting [11]), 37.3 nM.
With `CC[C@@H]1CCCc2cc3[nH]ncc3c(-c3nccc4c3sc3nc(OC[C@@]56CCCN5C[C@H](F)C6)nc(N5CCOC[C@@](C)(O)C5)c34)c21` [Ex-176], the IC50 is 19.8 nM in test [1]; 10.5 nM in test [2]; 6.22 nM in test [3]; 11.6 nM in test [4]; 12.5 nM in test [5]; 44.8 nM in test [6] (setting [12]). Further, the IC50 amounted to 51.9 nM in test [7] (setting [13]) and 22.7 nM in test [8] (setting [14]).
On to `[2H]C1([2H])CC[C@]2(COc3nc(N4CCOC[C@@](C)(O)C4)c4c(n3)sc3c(-c5c(C6CC6)c(Cl)cc6[nH]ncc56)nccc34)N1C[C@H](F)C2([2H])[2H]` [Ex-210, (6S)-4-(8-(6-chloro-5-cyclopropyl-1H-indazol-4-yl)-2-(((2R,7aS)-2-fluoro-tetrahydro-1H-pyrrolizin-7a(5H)-yl-1,1,5,5-d4)meth-oxy)pyrido[4′,3′: 4,5]thieno[2,3-d]pyrimidin-4-yl)-6-methyl-1,4-oxaze-pan-6-ol], for which the IC50 in test [1] came out at 12.2 nM; in test [2] it was 13.4 nM; in test [3], 4.71 nM; in test [4] it was 14.1 nM; in test [5] it was 12.7 nM; in test [6] (setting [12]) it was 20.1 nM. Also, the IC50 in test [7] (setting [13]) amounted to 35 nM; in test [8] (setting [14]), 12.3 nM.
For the compound `C[C@@]1(O)COCCN(c2nc(OC[C@@]34CCCN3C/C(=C\F)C4)nc3sc4c(-c5c(C6CC6)c(Cl)cc6[nH]ncc56)nccc4c23)C1` [Ex-208, (6S)-4-(8-(6-chloro-5-cyclopropyl-1H-indazol-4-yl)-2-(((S,Z)-2-(fluoromethylene)tetrahydro-1H-pyrrolizin-7a(5H)-yl)methoxy)pyrido[4′,3′:4,5]thieno[2,3-d]pyrimidin-4-yl)-6-methyl-1,4-oxazepan-6-ol], the 50% inhibitory concentration (IC50) in test [1] is 5.79 nM; in test [2] it was 44.5 nM; in test [3] it was 2.44 nM; in test [4], 11.1 nM; in test [5], 20.2 nM; in test [6] (setting [12]), 63.6 nM. In addition, the values for the IC50 in test [7] (setting [13]) and in test [8] (setting [14]) were 20.4 nM and 17 nM, respectively.
For the compound `Cc1cc2[nH]ncc2c(-c2nncc3c2sc2nc(OC[C@@]45CCCN4C[C@H](F)C5)nc(N4CCOC[C@@](C)(O)C4)c23)c1C1CC1` [Ex-279, (6S)-4-(8-(5-cyclopropyl-6-methyl-1H-indazol-4-yl)-2-(((2R,7aS)-2-fluorotetrahydro-1H-pyrrolizin-7a(5H)-yl)methoxy)pyrimi-do[5′,4′:4,5]thieno[2,3-d]pyridazin-4-yl)-6-methyl-1,4-oxazepan-6-ol], the IC50 stood at 13.6 nM in test [1]; 97.6 nM in test [2]; 5.15 nM in test [3]; 16 nM in test [4]; 7.59 nM in test [5]; 43 nM in test [6] (setting [9]). In addition, the IC50 worked out at 114 nM in test [7] (setting [10]) and 99.8 nM in test [8] (setting [11]).
With `Cc1cc2[nH]ncc2c(-c2nccn3c2cc2nc(OC[C@]4(CN(C)C)CC4(F)F)nc(N4CCOC[C@@](C)(O)C4)c23)c1C1CC1` [Ex-296, (S)-4-(9-(5-cyclopropyl-6-methyl-1H-indazol-4-yl)-2-(((R)-1-((dimethylamino)meth-yl)-2,2-difluorocyclopropyl)methoxy)pyrazino [1′,2′:1,5]pyrrolo[3,2-d]pyrimidin-4-yl)-6-methyl-1,4-oxazepan-6-ol], the IC50 amounted to 167 nM in test [1]; 43.9 nM in test [2]; 48.7 nM in test [3]; 101 nM in test [4]; 80.1 nM in test [5]; 316 nM in test [7] (setting [10]).
As for `Cc1cc2[nH]ncc2c(-c2nccc3c2oc2nc(OC[C@]4(CN(C)C)CC4(F)F)nc(N4CCOC[C@@](C)(O)C4)c23)c1C(F)F` [Ex-292, (6S)-4-(8-(5-(difluoromethyl)-6-methyl-1H-indazol-4-yl)-2-(((R)-1-((dimethylamino)methyl)-2,2-difluorocyclopropyl)meth-oxy)pyrido[4′,3′:4,5]furo[2,3-d]pyrimidin-4-yl)-6-methyl-1,4-oxazepan-6-ol], the IC50 in test [1] was found to be 603 nM; in test [2], 76.9 nM; in test [3], 175 nM; in test [4], 134 nM; in test [5], 308 nM; in test [7] (setting [10]), 2320 nM.

For the origin of these results see US20260176289A1, “SMALL MOLECULE INHIBITORS OF KRAS PROTEINS” (Merck Sharp & Dohme LLC, priority 2022, published 2026).
